Inconclusive results are not listed.
System: Clone20 osteoblast Shn3 3'UTR firefly luciferase, 24 h
Test: Schnurri-3 3'UTR-luciferase signal suppressors – cell-based, Clone20 osteoblasts, luminescence, dry powder, set 2, dose response (AID 743417)

Compound	AC50
O=C(c1cccc(S(=O)(=O)N2CCN(c3ccc(F)cc3)CC2)c1)N1CCCC(C(F)(F)F)C1 (configuration not stated)	0.942 µM
O=c1[nH]c(Nc2nc3ccccc3o2)nc2c1CCCC2	7.71 µM
CCCS(=O)(=O)Nc1ccc(Nc2c3ccccc3nc3ccccc23)c(OC)c1	3.39 µM
CCCC(=O)NC(c1ccccc1Cl)c1ccc2cccnc2c1O (configuration not stated)	1.21 µM
O=C(c1ccc(Br)cc1)C(CN1CCOCC1)c1ccccc1 (configuration not stated)	9.4 µM
COc1ccc(-c2cc(C(F)(F)F)nc(S(C)(=O)=O)n2)cc1	4.46 µM
O=C(Cc1ccc(Cl)cc1Cl)Nc1ccncc1	2.56 µM
COc1ccc(CN(C)c2ccc(S(=O)(=O)N3CCN(C)CC3)cc2[N+](=O)[O-])cc1OC	0.691 µM
CN(C)c1ccc(/C=C/c2nc3ccccc3s2)cc1	0.494 µM
COC(=O)c1ccc(COC(=O)c2[nH]c(C)c(C(C)=O)c2C)o1	2.58 µM
Cc1ccc(NC(=O)C2CCC(C(C)(C)C)CC2)cc1S(=O)(=O)N1CCOCC1 (configuration not stated)	12.1 µM
O=C(NC1CCCCCCC1)c1cc(COc2ccc3ncccc3c2)on1	1.06 µM
CCn1cc(C(=O)NCc2ccco2)c(=O)c2cc(S(=O)(=O)N3CC(C)CC(C)C3)ccc21 (configuration not stated)	0.778 µM
CC(C)(C)c1ccc(NC(=O)COc2ccc(-n3ccnc3)cc2)cc1	5.27 µM
CCN(CC)CCN1C(=O)/C(=C\c2ccc(Cl)c([N+](=O)[O-])c2)SC1=Nc1ccc(OC)cc1	2.11 µM
Cc1cc(C)n(-c2nc(Nc3ccccc3C(F)(F)F)nc(-n3nc(C)cc3C)n2)n1	5.49 µM
Cc1ccc(Oc2c(C(N)=O)cc([N+](=O)[O-])cc2[N+](=O)[O-])cc1	11.9 µM
CCOc1ccccc1Nc1cc(C)nc2ccccc12	8.14 µM
Cc1ccc(NC(=O)C2=C(c3ccccc3)S(=O)(=O)CCS2(=O)=O)cc1	0.558 µM
CN1CCN(C(c2ccc(Br)cc2)c2cc(Cl)c3cccnc3c2O)CC1 (configuration not stated)	3.61 µM
O=[N+]([O-])c1c(NCCCO)cc(Sc2ccc(Cl)cc2)c2nonc12	5.63 µM

Compound	AC50
CC(C)=CCC/C(C)=C/CNC(=O)C[C@H]1C[C@H](C(=O)N(C(C)C)C(C)C)[C@@]2(C)c3[nH]c4cc(CCC(=O)N(C)C)ccc4c3CCN2C1=O	2.05 µM
COc1ccc(CCNc2cc(N3CCN(C(=O)c4ccccc4F)CC3)ccc2[N+](=O)[O-])cc1OC	1.26 µM
O=C(c1n[nH]c(=O)c2ccccc12)N1CCN(C2c3ccccc3-c3ccccc32)CC1	7.69 µM
COc1ccc(CC(N)c2csc(NC(=O)NC(c3ccccc3)c3ccccc3)n2)cc1 (configuration not stated)	6.4 µM
Cc1ccc2nc(-c3ccc(O)c(O)c3)cn2c1	4.2 µM
CC(=O)c1c(C)[nH]c(C(=O)COc2cc(C)ccc2C(C)C)c1C	1.25 µM
O=C(Nc1ccc(-c2nc3ccccc3o2)cc1)c1ccc(N2CCOCC2)c([N+](=O)[O-])c1	3.35 µM
COc1ccc(OC)c(NC(=O)c2cc(-c3cc(F)ccc3OCC3CCCO3)n[nH]2)c1 (configuration not stated)	10.5 µM
c1csc(CCNc2ncnc3sc4c(c23)CCC4)c1	1.7 µM
C=C1C(=O)[C@]23C[C@H]1CCC2[C@@]1(C)C(C[C@@H]3O)[C@](C)(C(=O)OC)CC[C@@H]1O (some centres not stated)	2.58 µM
CCOc1cc(CNCc2ccccc2)ccc1OCc1ccc(Cl)cc1	6.69 µM
O=c1cc(-c2ccc(O)cc2)oc2ccc3ccccc3c12	5.41 µM
C=C1C(=O)OC2CC3(C)OC3C3OC3C3=CC(OC3=O)C12 (configuration not stated)	1.45 µM
CC(O)(c1ccncc1)c1nc(-c2cccc(C(F)(F)F)c2)cs1 (configuration not stated)	5.34 µM
Cc1ccc([C@@H]2CC(=O)[C@@H]3CN(S(=O)(=O)c4ccccc4C)[C@H](c4ccc(Cl)cc4)C[C@@H]3N2S(=O)(=O)c2ccc(C)cc2)cc1	0.361 µM
CC(C)c1ccc(NC(=O)Nc2nc(C(N)c3ccccc3)cs2)cc1 (configuration not stated)	2.48 µM
C#CC(=O)N(c1ccc(OC)c(OC)c1)C(C(=O)NC1CCCC1)c1cccs1 (configuration not stated)	3.32 µM
COc1ccc(CC2NCC(O)C2OC(C)=O)cc1 (configuration not stated)	< 0.26 µM
CCCC(=O)NC(c1ccc(Cl)cc1)c1ccc2cccnc2c1O (configuration not stated)	0.937 µM
C=C1CC2(OC1=O)c1ccccc1CCc1ccccc12	1.28 µM
CCOC(=O)CC1CCCCN1C(=O)c1cc(COc2cccc3cnccc23)on1 (configuration not stated)	0.713 µM

Reference: PubChem BioAssay AID743417 (Broad Institute, 2014)
